Source: patent US20220071932A1, “Compositions and Methods Against Stress-Induced Affective Disorders and Their Associated Symptoms” (The Trustees of Columbia University in the City of New York, priority 2019, published 2022)

Columns and labels:
Type in all cases: in vivo
129S6/SvEv mice [1] = test: Contextual fear conditioning (CFC), 3-shock; freezing; conditions: for p, Freezing (%), CFC Re-exposure 2, Saline vs. drug: drug 5 min after re-exposure 1; for Behavior: Fear: dose 30 mg/kg
Experimental: A 3-shock CFC paradigm was administered as previously described (45, 46). CFC was conducted in chambers obtained from Med Associates (St. Albans, Vt.), with internal dimensions of approximately 20 cm wide×16 cm deep×20.5 cm high. The chambers had metal walls on each side, clear plastic front and back walls and ceilings, and stainless-steel bars on the floor. A house light (CM1820 bulb, 28v, 100 mA) mounted directly above the chamber provided illumination. Each chamber was located inside a larger, insulated, plastic cabinet that provided protection from outside light and noise. Each cabinet contained a ventilation fan that was operated during the sessions. A paper towel dabbed with lemon solution was placed underneath the chamber floor. Mice were held outside the experimental room in their home cages prior to testing and transported to the conditioning apparatus individually in standard mouse cages Chambers were cleaned with 70% EtOH between each set of mice. Mice were placed into the conditioning chamber and received shocks at 180 s, 240 s, and 300 s (2 s duration, 0.75 mA). Fifteen seconds after the last shock, mice were removed from the chamber. Overall, the training session lasted 317 s. […] All sessions were scored for freezing using FreezeFrame4.

129S6/SvEv mice [2] = test: Open field (OF); conditions: for distance travelled in the OF / time spent in the center of the OF arena: vs saline
Experimental: The OF assay was administered as previously described (47). Briefly, motor activity was quantified in 4 Plexiglas open field boxes 43×43 cm^2 (MED Associates, Georgia, Vt.). Two sets of 16 pulse-modulated infrared photobeams on opposite walls 2.5-cm apart recorded x-y ambulatory movements. Activity chambers were computer interfaced for data sampling at 100-ms resolution. The computer defined grid lines that dividing center and surround regions, with the center square consisting of four lines 11 cm from the wall.

129S6/SvEv mice [3] = test: Elevated plus maze (EPM); conditions: (R,S)-ketamine 30 mg/kg, FENM 10, 20 or 30 mg/kg, vs saline
Experimental: Testing was performed as previously described (47). Briefly, the maze is a plus-cross-shaped apparatus consisting of four arms, two open and two enclosed by walls, linked by a central platform at a height of 50 cm from the floor. Mice were individually placed in the center of the maze facing an open arm and were allowed to explore the maze for 5 min. The time spent in and the number of entries into the open arms was used as an anxiety index. Videos were scored using ANY-maze behavior tracking software (Stoelting, Wood Dale, Ill.).

[4] = 30 mg/kg, drug 1 week before stress, FIG. 1C
[5] = 30 mg/kg, drug 5 minutes after stress, FIG. 2C
[6] = 5 min prior to CFC, (R,S)-ketamine 30 mg/kg, FENM 20 mg/kg, vs saline
[7] = Saline vs. (R,S)-ketamine (30 mg/kg), FIG. 8D
[8] = Saline vs. (R,S)-ketamine (30 mg/kg), FIG. 8F
[9] = 1 week prior to CFC, (R,S)-ketamine 30 mg/kg, FENM 10, 20 or 30 mg/kg
[10] = 5 min prior to CFC, (R,S)-ketamine 30 mg/kg, FENM 20 mg/kg
[11] = Fisher's PLSD, drug 5 minutes after stress, FENM 20 mg/kg, (R,S)-ketamine 30 mg/kg
[12] = Saline vs. (R,S)-ketamine (30 mg/kg), cohort 5 min before re-exposure 1, FIG. 9L
[13] = 5 minutes after CFC, re-exposure 5 days after training

CNC1(c2ccccc2Cl)CCCCC1=O (racemic) [(R,S)-ketamine, reference compound]
p, Fisher's LSD Saline vs. drug, CFC Re-exposure Freezing Min 1 (%) (129S6/SvEv mice [1]; [4]): 0.0101 | p, Fisher's LSD Saline vs. drug, CFC Re-exposure Freezing Min 2 (%) (129S6/SvEv mice [1]; [4]): 0.0012 | p, Fisher's LSD Saline vs. drug, CFC Re-exposure Freezing Min 3 (%) (129S6/SvEv mice [1]; [4]): 0.0320 | p, Fisher's LSD Saline vs. drug, CFC Re-exposure Freezing Min 4 (%) (129S6/SvEv mice [1]; [4]): 0.0592 | p, Fisher's LSD Saline vs. drug, CFC Re-exposure Freezing Min 5 (%) (129S6/SvEv mice [1]; [4]): 0.4016 | p, Fisher's LSD Saline vs. drug, CFC Re-exposure Freezing (%) (129S6/SvEv mice [1]; 30 mg/kg, drug 1 week before stress, after ANOVA, FIG. 1D): 0.0086 | p, Fisher's LSD Saline vs. drug, CFC Re-exposure Freezing (%) (129S6/SvEv mice [1]; 30 mg/kg, drug 1 week before stress, after RMANOVA, FIG. 1C): 0.0086 | p, Fisher's PLSD Saline vs. drug, CFC Re-exposure Freezing Min 1 (%) (129S6/SvEv mice [1]; [5]): 0.6701 | p, Fisher's PLSD Saline vs. drug, CFC Re-exposure Freezing Min 2 (%) (129S6/SvEv mice [1]; [5]): 0.0587 | p, Fisher's PLSD Saline vs. drug, CFC Re-exposure Freezing Min 3 (%) (129S6/SvEv mice [1]; [5]): 0.1358 | p, Fisher's PLSD Saline vs. drug, CFC Re-exposure Freezing Min 4 (%) (129S6/SvEv mice [1]; [5]): 0.5515 | p, Fisher's PLSD Saline vs. drug, CFC Re-exposure Freezing Min 5 (%) (129S6/SvEv mice [1]; [5]): 0.1641 | p, Fisher's PLSD Saline vs. drug, CFC Re-exposure Freezing (%) (129S6/SvEv mice [1]; 30 mg/kg, drug 5 minutes after stress, after RMANOVA, FIG. 2C): 0.4342 | fear expression during CFC re-exposure (129S6/SvEv mice [1]; 1 week prior to CFC, (R,S)-ketamine 30 mg/kg, FENM 20 and 30 mg/kg, vs saline): decreased fear expression | fear expression during re-exposure 2 (129S6/SvEv mice [1]; 5 min after context re-exposure 1 (24 h before re-exposure 2), (R,S)-ketamine 30 mg/kg, FENM 20 mg/kg, vs saline): but not (R,S)-ketamine, significantly decreased | fear expression during CFC re-exposure 1 (129S6/SvEv mice [1]; [6]): significantly decreased fear expression | fear expression during CFC re-exposure 2 (129S6/SvEv mice [1]; [6]): significantly decreased fear expression | freezing during CFC training (129S6/SvEv mice [1]; [6]): significantly increased freezing | p, Freezing (%), CFC Re-exposure 2, Saline vs. drug (129S6/SvEv mice [1]; Fisher's LSD after ANOVA, FENM 20 mg/kg, (R,S)-ketamine 30 mg/kg, FIG. 4G): 0.9122 | p, Freezing (%), CFC Re-exposure 2, Saline vs. drug (129S6/SvEv mice [1]; Fisher's LSD after RMANOVA, FENM 20 mg/kg, ketamine 30 mg/kg, FIG. 4F): 0.9122 | p, Freezing (%), CFC Training, Saline vs. drug (129S6/SvEv mice [1]; Fisher's LSD after RMANOVA, drug 5 min before CFC, (R,S)-ketamine 30 mg/kg, FENM dose lies beyond the rows shown, FIG. 8B): 0.0024 | Behavior: Fear (129S6/SvEv mice [1]; Prophylactic (5 min before stress)): ↓ | Behavior: Fear (129S6/SvEv mice [1]; Prophylactic (7 days before stress)): ↓ | CFC Training, Average Freezing, p (Fisher's LSD) (129S6/SvEv mice [1]; Saline vs. (R,S)-ketamine (30 mg/kg), FIG. 8C): 0.0024 | CFC Re-exposure 1, Freezing Min 1 (%), p (Fisher's LSD) (129S6/SvEv mice [1]; [7]): 0.0066 | CFC Re-exposure 1, Freezing Min 2 (%), p (Fisher's LSD) (129S6/SvEv mice [1]; [7]): <0.0001 | CFC Re-exposure 1, Freezing Min 3 (%), p (Fisher's LSD) (129S6/SvEv mice [1]; [7]): <0.0001 | CFC Re-exposure 1, Freezing Min 4 (%), p (Fisher's LSD) (129S6/SvEv mice [1]; [7]): <0.0001 | CFC Re-exposure 1, Freezing Min 5 (%), p (Fisher's LSD) (129S6/SvEv mice [1]; [7]): <0.0001 | CFC Re-exposure 2, Freezing Min 1 (%), p (Fisher's LSD) (129S6/SvEv mice [1]; [8]): 0.4378 | CFC Re-exposure 2, Freezing Min 2 (%), p (Fisher's LSD) (129S6/SvEv mice [1]; [8]): 0.0304 | CFC Re-exposure 2, Freezing Min 4 (%), p (Fisher's LSD) (129S6/SvEv mice [1]; [8]): <0.0001 | CFC Re-exposure 2, Freezing Min 5 (%), p (Fisher's LSD) (129S6/SvEv mice [1]; [8]): <0.0001 | CFC Re-exposure 1, Freezing (%), p (Fisher's LSD) (129S6/SvEv mice [1]; Saline vs. (R,S)-ketamine (30 mg/kg), after ANOVA, FIG. 8E): <0.0001 | CFC Re-exposure 2, Freezing (%), p (Fisher's LSD) (129S6/SvEv mice [1]; Saline vs. (R,S)-ketamine (30 mg/kg), after ANOVA, FIG. 8G): <0.0001 | CFC Re-exposure 1, Freezing (%), p (Fisher's LSD) (129S6/SvEv mice [1]; Saline vs. (R,S)-ketamine (30 mg/kg), after RMANOVA, FIG. 8D): <0.0001 | CFC Re-exposure 2, Freezing (%), p (Fisher's LSD) (129S6/SvEv mice [1]; Saline vs. (R,S)-ketamine (30 mg/kg), after RMANOVA, FIG. 8F): <0.0001 | CFC Re-exposure 2, Freezing Min 3 (%), p (Fisher's LSD) (129S6/SvEv mice [1]; Saline vs. ketamine (30 mg/kg), FIG. 8F): 0.0033 | behavior during CFC training (129S6/SvEv mice [1]; one week prior to 3-shock CFC (c-fos / Western blot cohort), (R,S)-ketamine 30 mg/kg, FENM 20 mg/kg, vs saline): did not alter behavior | freezing upon re-exposure (129S6/SvEv mice [1]; one week prior to 3-shock CFC, re-exposed five days later, (R,S)-ketamine 30 mg/kg, FENM 20 mg/kg, vs saline): significantly reduced freezing | distance travelled in the OF (129S6/SvEv mice [2]; [9]): did not alter | time spent in the center of the OF arena (129S6/SvEv mice [2]; [9]): did not alter | distance travelled in the OF (129S6/SvEv mice [2]; [10]): did not alter | time spent in the center of the OF arena (129S6/SvEv mice [2]; [10]): did not alter | p, Distance Travelled (cm), OF, Saline vs. drug (129S6/SvEv mice [2]; Fisher's PLSD after RMANOVA, drug 5 minutes after stress, FENM 20 mg/kg, (R,S)-ketamine 30 mg/kg, FIG. 3L): 0.9319 | p, Distance Travelled Min 1 (cm), OF, Saline vs. drug (129S6/SvEv mice [2]; [11]): 0.0589 | p, Distance Travelled Min 2 (cm), OF, Saline vs. drug (129S6/SvEv mice [2]; [11]): 0.0098 | p, Distance Travelled Min 3 (cm), OF, Saline vs. drug (129S6/SvEv mice [2]; [11]): 0.1586 | p, Distance Travelled Min 4 (cm), OF, Saline vs. drug (129S6/SvEv mice [2]; [11]): 0.6504 | p, Distance Travelled Min 5 (cm), OF, Saline vs. drug (129S6/SvEv mice [2]; [11]): 0.3454 | p, Distance Travelled Min 6 (cm), OF, Saline vs. drug (129S6/SvEv mice [2]; [11]): 0.7410 | p, Distance Travelled Min 7 (cm), OF, Saline vs. drug (129S6/SvEv mice [2]; [11]): 0.1344 | p, Distance Travelled Min 8 (cm), OF, Saline vs. drug (129S6/SvEv mice [2]; [11]): 0.1467 | p, Distance Travelled Min 9 (cm), OF, Saline vs. drug (129S6/SvEv mice [2]; [11]): 0.0061 | p, Distance Travelled Min 10 (cm), OF, Saline vs. drug (129S6/SvEv mice [2]; [11]): 0.4667 | Open Field, Distance Travelled Min 1 (cm), p (Fisher's LSD) (129S6/SvEv mice [2]; [12]): 0.3306 | Open Field, Distance Travelled Min 2 (cm), p (Fisher's LSD) (129S6/SvEv mice [2]; [12]): 0.5200 | distance travelled in the EPM (129S6/SvEv mice [3]; 1 week prior to CFC): did not alter | time spent in the open arms and center of the EPM (129S6/SvEv mice [3]; 1 week prior to CFC): did not alter | distance travelled in the EPM (129S6/SvEv mice [3]; [13]): did not alter | time spent in the open arms and center of the EPM (129S6/SvEv mice [3]; [13]): did not alter
